Results: ChEMBL document CHEMBL4376822, “Hot-Spots of Mcl-1 Protein” (J Med Chem, 2020)
Each block holds one molecule with its values, some of them ahead of it.

Experiments:
[1] = target: T1, Apoptosis regulator Bcl-2 (Homo sapiens, UniProt P10415); assay: Inhibition of human BCl2 expressed in Escherichia coli BL21 (DE3) pLysS cells by surface plasmon resonance assay
[2] = Inhibition of human GST-tagged BCL-XL deltaC25 mutant using biotinylated BIM 26-mer peptide as substrate incubated for 30 mins by AlphaScreen assay
[3] = target: T2, Induced myeloid leukemia cell differentiation protein Mcl-1 (Homo sapiens, UniProt Q07820)
T2 sequence (Q07820 whole entry): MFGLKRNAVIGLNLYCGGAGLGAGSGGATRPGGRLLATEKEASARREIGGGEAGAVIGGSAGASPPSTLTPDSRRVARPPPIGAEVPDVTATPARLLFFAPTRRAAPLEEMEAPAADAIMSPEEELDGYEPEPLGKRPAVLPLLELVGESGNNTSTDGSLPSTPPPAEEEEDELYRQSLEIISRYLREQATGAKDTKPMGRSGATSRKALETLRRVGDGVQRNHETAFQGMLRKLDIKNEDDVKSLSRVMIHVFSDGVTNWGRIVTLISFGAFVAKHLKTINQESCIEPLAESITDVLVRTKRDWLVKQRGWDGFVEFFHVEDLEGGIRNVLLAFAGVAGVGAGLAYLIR

[4] = Inhibition of human GST-tagged BCL-XL deltaC24 mutant using BIMBH3 mutant peptide as substrate by SPR assay
[5] = target: T1, Apoptosis regulator Bcl-2; assay: Displacement of fluorescein labelled Puma-BH3 peptide from human BCl2 expressed in Escherichia coli BL21 (DE3) pLysS cells incubated for 2 hrs by fluorescence polarization assay
[6] = target: T2, Induced myeloid leukemia cell differentiation protein Mcl-1; assay: Inhibition of TAMRA-labeled BIM BH3 peptide binding to human Mcl1 (171 to 327 residues) incubated for 120 mins by fluorescence polarization
[7] = target: T2, Induced myeloid leukemia cell differentiation protein Mcl-1; assay: Displacement of fluorescein labelled Puma-BH3 peptide from His-tagged-TEV fused human Mcl-1 incubated for 2 hrs by fluorescence polarization assay
[8] = target: T1, Apoptosis regulator Bcl-2; assay: Inhibition of Bcl-2 (unknown origin) by fluorescence polarization assay
[9] = target: T1, Apoptosis regulator Bcl-2; assay: Inhibition of wild-type BCL-2 (unknown origin) expressed in Escherichia coli BL21 cells using biotinylated BIMBH3 or BAXBH3 peptide by surface plasmon resonance assay

T1 sequence (P10415 whole entry): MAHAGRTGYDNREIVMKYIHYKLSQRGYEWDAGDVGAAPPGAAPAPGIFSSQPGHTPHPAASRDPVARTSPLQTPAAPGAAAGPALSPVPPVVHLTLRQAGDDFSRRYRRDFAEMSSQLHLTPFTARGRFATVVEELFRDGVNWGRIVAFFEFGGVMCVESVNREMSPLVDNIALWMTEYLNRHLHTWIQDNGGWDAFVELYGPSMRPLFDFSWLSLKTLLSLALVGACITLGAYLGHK

- IC50 [1]: 3.3 nM
Compound: CC[C@H](C)[C@H](NC(=O)[C@H](CCC(=O)O)NC(=O)[C@H](CCCNC(=N)N)NC(=O)[C@H](C)NC(=O)[C@H](Cc1c[nH]c2ccccc12)NC(=O)[C@H](CCC(N)=O)NC(=O)[C@H](CCC(=O)O)NC(=O)[C@@H](N)CCC(=O)O)C(=O)NCC(=O)N[C@@H](C)C(=O)N[C@@H](CCC(N)=O)C(=O)N[C@@H](CC(C)C)C(=O)N[C@@H](CCCNC(=N)N)C(=O)N[C@@H](CCCNC(=N)N)C(=O)N[C@@H](CCSC)C(=O)N[C@@H](C)C(=O)N[C@@H](CC(=O)O)C(=O)N[C@@H](CC(=O)O)C(=O)N[C@@H](CC(C)C)C(=O)N[C@@H](CC(N)=O)C(=O)N[C@@H](C)C(=O)N[C@@H](CCC(N)=O)C(=O)N[C@@H](Cc1ccc(O)cc1)C(=O)N[C@@H](CCC(=O)O)C(=O)N[C@@H](CCCNC(=N)N)C(=O)O

- IC50 [2]: 24 nM
Compound: O=C(O)c1nc(-c2ccc3c(c2)/C(=N/Nc2nc4ccccc4s2)CCC3)sc1CCCCc1ccccc1

- IC50 [3]: 1100 nM
Compound: Cc1ccccc1-c1cccc2c(CCCOc3cccc4ccccc34)c(C(=O)O)[nH]c12

- IC50 [4]: 11 nM
Compound: CN(C)CC[C@H](CSc1ccccc1)Nc1ccc(S(=O)(=O)NC(=O)c2ccc(N3CCN(Cc4ccccc4-c4ccccc4)CC3)cc2)cc1[N+](=O)[O-]

- IC50 [5]: 1300 nM
Compound: CCCCN(CCCC)C(=O)c1cc(C)n(-c2ccccc2C(=O)N2Cc3ccccc3C[C@H]2CN)n1

- IC50 [6]: 10 nM
Compound: O=C1NS(=O)(=O)CCOCCCCCCN2C[C@@]3(CCCc4cc(Cl)ccc43)COc3ccc1cc32

- IC50 [5]: 500 nM
Compound: C[N+](C)(CC[C@H](CSc1ccccc1)Nc1ccc(S(=O)(=O)NC(=O)c2ccc(N3CCN(Cc4ccccc4-c4ccc(Cl)cc4)CC3)cc2)cc1[N+](=O)[O-])CC(=O)O

- IC50 [5]: 20 nM
Compound: COc1cc2c(cc1C(CN1CCCC1)c1ccc(-c3ccc(C(=O)NS(=O)(=O)c4ccc(C[C@H](CCN5CCOCC5)CSc5ccccc5)c(S(=O)(=O)C(F)(F)F)c4)cc3)cc1)OCO2 (some centres undefined)

- IC50 [7]: 100 nM
Compound: Cc1n[nH]c(C)c1-c1cccc2c(CCCOc3cccc4ccccc34)c(C(=O)O)[nH]c12

- IC50 [7]: 520000 nM
Compound: CCc1sc2ncnc(N[C@@H](CO)C(=O)O)c2c1-c1ccccc1

- Ki [8]: 59 nM
Compound: O=C(NS(=O)(=O)c1ccc(NC2CCOCC2)c([N+](=O)[O-])c1)c1ccc(N2CCN(CC3=C(c4ccc(Cl)cc4)COCC3)CC2)cc1

- IC50 [2]: 770 nM
Compound: C/C(=N\Nc1nc2ccccc2s1)c1ccc(-c2ccc(S(=O)(=O)NC(=O)CCCCCc3ccccc3)cc2)o1

- Ki [9]: 0.36 nM
Compound: NC[C@@H]1Cc2ccccc2CN1C(=O)c1cc2c(cc1-c1cc(C(=O)N(c3ccccc3)c3ccc(O)cc3)c3n1CCCC3)OCO2
